# From ChEMBL document CHEMBL5518215, “Unlocking Antibacterial Potential: Key-Site-Based Regulation of Antibacterial Spectrum of Peptides” (J Med Chem, 2024)
# Tests used:
# [1] = tested on: Escherichia coli; assay: Antimicrobial activity against Escherichia coli 25922 assessed as absence bacterial growth measured after 18 to 24 hrs incubation in presence of KCl by NCCLS method; assay type: functional; settings: time 18-24 hrs
# [2] = tested on: Enterococcus faecalis; assay: Antimicrobial activity against Enterococcus faecalis 29212 assessed as absence bacterial growth measured after 18 to 24 hrs incubation by NCCLS method; assay type: functional; settings: time 18-24 hrs
# [3] = tested on: Listeria monocytogenes; assay: Antimicrobial activity against Listeria monocytogenes 1.10753 assessed as bacterial killing measured after 16 hrs incubation; assay type: functional
# [4] = tested on: Staphylococcus aureus; assay: Antimicrobial activity against Staphylococcus aureus 25923 assessed as bacterial killing measured after 16 hrs incubation; assay type: functional
# [5] = tested on: Escherichia coli; assay: Antimicrobial activity against Escherichia coli 25922 assessed as bacterial killing measured after 16 hrs incubation; assay type: functional
# [6] = tested on: Escherichia coli; assay: Antimicrobial activity against Escherichia coli 25922 assessed as absence bacterial growth measured after 18 to 24 hrs incubation in presence of 12.5% serum by NCCLS method; assay type: functional; settings: time 18-24 hrs
# [7] = tested on: Bacillus cereus; assay: Antimicrobial activity against Bacillus cereus 1.932 assessed as absence bacterial growth measured after 18 to 24 hrs incubation by NCCLS method; assay type: functional; settings: time 18-24 hrs
# [8] = Antimicrobial activity against Salmonella pullorum C7913 assessed as bacterial killing measured after 16 hrs incubation; assay type: functional, Salmonella enterica subsp. enterica serovar Pullorum; settings: Salmonella enterica
# [9] = tested on: Erythrocyte; assay: Hemolytic activity in human RBC at effective concentration measured after 1 hr by microplate reader analysis; assay type: toxicity, cell-based
# [10] = tested on: Staphylococcus epidermidis; assay: Antimicrobial activity against Staphylococcus epidermidis 12228 assessed as absence bacterial growth measured after 18 to 24 hrs incubation by NCCLS method; assay type: functional; settings: time 18-24 hrs
# [11] = tested on: Escherichia coli; assay: Antimicrobial activity against Escherichia coli 25922 assessed as absence bacterial growth measured after 18 to 24 hrs incubation in presence of NaCl by NCCLS method; assay type: functional; settings: time 18-24 hrs
# [12] = tested on: Staphylococcus aureus; assay: Antimicrobial activity against Methicillin-resistant Staphylococcus aureus 43300 assessed as bacterial killing measured after 16 hrs incubation; assay type: functional
# [13] = tested on: Escherichia coli; assay: Antimicrobial activity against Escherichia coli 25922 assessed as absence bacterial growth measured after 18 to 24 hrs incubation by NCCLS method; assay type: functional; settings: time 18-24 hrs
# [14] = tested on: Escherichia coli; assay: Antimicrobial activity against Escherichia coli K88 assessed as bacterial killing measured after 16 hrs incubation; assay type: functional
# [15] = tested on: Escherichia coli; assay: Antimicrobial activity against Escherichia coli 25922 assessed as absence bacterial growth measured after 18 to 24 hrs incubation in presence of 25% serum by NCCLS method; assay type: functional; settings: time 18-24 hrs
# [16] = tested on: Salmonella typhimurium; assay: Antimicrobial activity against Salmonella typhimurium 14028 assessed as bacterial killing measured after 16 hrs incubation; assay type: functional, Salmonella enterica subsp. enterica serovar Typhimurium; settings: Salmonella enterica
# [17] = tested on: Escherichia coli; assay: Antimicrobial activity against Escherichia coli 25922 assessed as absence bacterial growth measured after 18 to 24 hrs incubation in presence of NH4Cl by NCCLS method; assay type: functional; settings: time 18-24 hrs
# [18] = tested on: Salmonella typhimurium; assay: Antimicrobial activity against Salmonella typhimurium 14028 assessed as absence bacterial growth measured after 18 to 24 hrs incubation by NCCLS method; assay type: functional, Salmonella enterica subsp. enterica serovar Typhimurium; settings: Salmonella enterica, time 18-24 hrs
# [19] = tested on: Pseudomonas aeruginosa; assay: Antimicrobial activity against Pseudomonas aeruginosa 27853 assessed as bacterial killing measured after 16 hrs incubation; assay type: functional
# [20] = tested on: Escherichia coli; assay: Antimicrobial activity against Escherichia coli 25922 assessed as absence bacterial growth measured after 18 to 24 hrs incubation in presence of 50% serum by NCCLS method; assay type: functional; settings: time 18-24 hrs
# [21] = tested on: Pseudomonas aeruginosa; assay: Antimicrobial activity against Pseudomonas aeruginosa 27853 assessed as absence bacterial growth measured after 18 to 24 hrs incubation by NCCLS method; assay type: functional; settings: time 18-24 hrs
# [22] = tested on: Salmonella typhimurium; assay: Antimicrobial activity against Salmonella typhimurium C7731 assessed as bacterial killing measured after 16 hrs incubation; assay type: functional, Salmonella enterica subsp. enterica serovar Typhimurium; settings: Salmonella enterica
# [23] = Cytotoxicity against mouse RAW264.7 cells assessed as cell survival rate measured after 8 hrs by MTT assay; assay type: toxicity, cell-based
# [24] = tested on: Escherichia coli; assay: Antimicrobial activity against Escherichia coli 25922 assessed as absence bacterial growth measured after 18 to 24 hrs incubation in presence of FeCl3 by NCCLS method; assay type: functional; settings: time 18-24 hrs
# [25] = tested on: Staphylococcus aureus; assay: Antimicrobial activity against Staphylococcus aureus 29213 assessed as absence bacterial growth measured after 18 to 24 hrs incubation by NCCLS method; assay type: functional; settings: time 18-24 hrs
# [26] = tested on: Escherichia coli; assay: Antimicrobial activity against Escherichia coli K88 assessed as absence bacterial growth measured after 18 to 24 hrs incubation by NCCLS method; assay type: functional; settings: time 18-24 hrs
# [27] = Cytotoxicity against mouse RAW264.7 cells assessed as cell survival rate at 32 to 64 uM measured after 8 hrs by MTT assay relative to control; assay type: toxicity, cell-based; settings: dose 32-64 µM, read-out: Activity
# [28] = Cytotoxicity against human HEK-293T cells assessed as cell survival rate at 64 uM measured after 8 hrs by MTT assay relative to control; assay type: toxicity, cell-based; settings: read-out: Activity
# [29] = Cytotoxicity against porcine IPEC-J2 cells assessed as cell survival rate measured after 8 hrs by MTT assay; assay type: toxicity, cell-based, Sus scrofa; settings: pig
# [30] = Antimicrobial activity against Salmonella pullorum C7913 assessed as absence bacterial growth measured after 18 to 24 hrs incubation by NCCLS method; assay type: functional, Salmonella enterica subsp. enterica serovar Pullorum; settings: Salmonella enterica, time 18-24 hrs
# [31] = tested on: Enterococcus faecalis; assay: Antimicrobial activity against Enterococcus faecalis 29212 assessed as bacterial killing measured after 16 hrs incubation; assay type: functional
# [32] = tested on: Staphylococcus aureus; assay: Antimicrobial activity against Methicillin-resistant Staphylococcus aureus 43300 assessed as absence bacterial growth measured after 18 to 24 hrs incubation by NCCLS method; assay type: functional; settings: time 18-24 hrs
# [33] = tested on: Bacillus cereus; assay: Antimicrobial activity against Bacillus cereus 1.932 assessed as bacterial killing measured after 16 hrs incubation; assay type: functional
# [34] = tested on: Escherichia coli; assay: Antimicrobial activity against Escherichia coli 25922 assessed as absence bacterial growth measured after 18 to 24 hrs incubation in presence of MgCl2 by NCCLS method; assay type: functional; settings: time 18-24 hrs
# [35] = Cytotoxicity against porcine IPEC-J2 cells assessed as cell survival rate at 64 uM measured after 8 hrs by MTT assay relative to control; assay type: toxicity, cell-based, Sus scrofa; settings: pig, read-out: Activity
# [36] = Hemolytic activity in human RBC at effective concentration at 128 uM measured after 1 hr by microplate reader relative to control; assay type: toxicity, cell-based, Erythrocyte; settings: human red blood cells (erythrocytes), read-out: Activity
# [37] = tested on: Staphylococcus epidermidis; assay: Antimicrobial activity against Staphylococcus epidermidis 12228 assessed as bacterial killing measured after 16 hrs incubation; assay type: functional
# [38] = tested on: Salmonella typhimurium; assay: Antimicrobial activity against Salmonella typhimurium C7731 assessed as absence bacterial growth measured after 18 to 24 hrs incubation by NCCLS method; assay type: functional, Salmonella enterica subsp. enterica serovar Typhimurium; settings: Salmonella enterica, time 18-24 hrs
# [39] = tested on: Staphylococcus aureus; assay: Antimicrobial activity against Staphylococcus aureus 29213 assessed as absence bacterial growth measured after 18 to 24 hrs incubation by NCCLS m; assay type: functional; settings: time 18-24 hrs
# [40] = tested on: Listeria monocytogenes; assay: Antimicrobial activity against Listeria monocytogenes 1.10753 assessed as absence bacterial growth measured after 18 to 24 hrs incubation by NCCLS method; assay type: functional; settings: time 18-24 hrs
# [41] = Cytotoxicity against human HEK-293T cells assessed as cell survival rate measured after 8 hrs by MTT assay; assay type: toxicity, cell-based
# [42] = tested on: Acinetobacter baumannii; assay: Antimicrobial activity against Acinetobacter baumannii 1.6769 assessed as bacterial killing measured after 16 hrs incubation; assay type: functional
# [43] = tested on: Acinetobacter baumannii; assay: Antimicrobial activity against Acinetobacter baumannii 1.6769 assessed as absence bacterial growth measured after 18 to 24 hrs incubation by NCCLS method; assay type: functional; settings: time 18-24 hrs
# [44] = tested on: Staphylococcus aureus; assay: Antimicrobial activity against Staphylococcus aureus 29213 assessed as bacterial killing measured after 16 hrs incubation; assay type: functional
# [45] = tested on: Escherichia coli; assay: Antimicrobial activity against Escherichia coli 25922 assessed as absence bacterial growth measured after 18 to 24 hrs incubation in presence of ZnCl2 by NCCLS method; assay type: functional; settings: time 18-24 hrs
substance,measurement,setting,value
H-GKLWLKGGKLWLKGAKLWLKG-NH2,MIC,[1],2 µM
same,MIC,[2],4 µM
same,MBC,[3],> 32 µM
same,MBC,[4],4 µM
same,MBC,[5],2 µM
same,MIC,[6],32 µM
same,MIC,[7],4 µM
same,MBC,[8],2 µM
same,HC10,[9],> 128 µM
same,MIC,[10],4 µM
same,MIC,[11],16 µM
same,MBC,[12],4 µM
same,MIC,[13],2 µM
same,MBC,[14],1 µM
same,MIC,[15],> 32 µM
same,MBC,[16],4 µM
same,MIC,[17],2 µM
same,MIC,[18],4 µM
same,MBC,[19],8 µM
same,MIC,[20],> 32 µM
same,MIC,[21],4 µM
same,MBC,[22],8 µM
same,IC50 at 8 h,[23],> 64 µM
same,MIC,[24],2 µM
same,MIC,[25],4 µM
same,MIC,[26],1 µM
same,"viability at 8 h, up to 64 µM",[27],60%
same,"viability at 8 h, 64 µM",[28],> 80%
same,IC50 at 8 h,[29],> 64 µM
same,MIC,[30],1 µM
same,MBC,[31],4 µM
same,MIC,[32],2 µM
same,MBC,[33],4 µM
same,MIC,[34],8 µM
same,"viability at 8 h, 64 µM",[35],> 80%
same,"hemolysis at 1 h, 128 µM",[36],< 10%
same,MBC,[37],4 µM
same,MIC,[38],4 µM
same,MIC,[39],4 µM
same,MIC,[40],> 32 µM
same,IC50 at 8 h,[41],> 64 µM
same,MBC,[42],2 µM
same,MIC,[43],2 µM
same,MBC,[44],4 µM
same,MIC,[45],2 µM
H-GKLWLKGGKLWLKGGKLWLKG-NH2,MIC,[1],4 µM
same,MIC,[2],> 32 µM
same,MBC,[3],> 32 µM
same,MBC,[4],> 32 µM
same,MBC,[5],8 µM
same,MIC,[6],> 32 µM
same,MIC,[7],> 32 µM
same,MBC,[8],2 µM
same,HC10,[9],> 128 µM
same,MIC,[10],> 32 µM
same,MIC,[11],> 32 µM
same,MBC,[12],> 32 µM
same,MIC,[13],4 µM
same,MBC,[14],2 µM
same,MIC,[15],> 32 µM
same,MBC,[16],4 µM
same,MIC,[17],4 µM
same,MIC,[18],2 µM
same,MBC,[19],16 µM
same,MIC,[20],> 32 µM
same,MIC,[21],8 µM
same,MBC,[22],8 µM
same,IC50 at 8 h,[23],> 64 µM
same,MIC,[24],4 µM
same,MIC,[25],> 32 µM
same,MIC,[26],1 µM
same,"viability at 8 h, 64 µM",[28],> 80%
same,IC50 at 8 h,[29],> 64 µM
same,MIC,[30],1 µM
same,MBC,[31],> 32 µM
same,MIC,[32],> 32 µM
same,MBC,[33],> 32 µM
same,MIC,[34],16 µM
same,"viability at 8 h, 64 µM",[35],> 80%
same,"hemolysis at 1 h, 128 µM",[36],< 10%
same,MBC,[37],> 32 µM
same,MIC,[38],4 µM
same,MIC,[39],> 32 µM
same,MIC,[40],> 32 µM
same,IC50 at 8 h,[41],> 64 µM
same,MBC,[42],8 µM
same,MIC,[43],8 µM
same,MBC,[44],> 32 µM
same,MIC,[45],4 µM
